Experimental data taken from PMC5510868 (PLoS ONE, 2017).
Entries after “also recorded” stand apart in the source; their conditions may differ. Where two headings read alike, the source gives them in different places.

Columns and labels:
[1] = Dose-adjusted serum antidepressant concentrations across pregnancy compared to the women's own baseline (routine TDM, LC-MS, linear mixed model); assay type: in vivo, human; conditions: for Change of serum concentration in pregnancy compared to baseline (in words): fluoxetine and venlafaxine = active moiety; for Serum concentration in third trimester lower than baseline (reduction): mid third trimester (gestational week 34) vs baseline, value given as size of the reduction; for Serum concentration in pregnancy as share of pre-pregnancy levels: drop to about this share of pre-pregnancy levels
From the text: After obtaining approval from the Regional Committee for Medical and Health Research Ethics in Mid Norway, the Norwegian Centre for Research Data (Data Protection Official), the Norwegian Directorate of Health and the Medical Birth Registry of Norway (MBRN) publication council, serum concentration data for antidepressants were collected from the two largest TDM services for psychotropic drugs in Norway (i.e. Department of Clinical Pharmacology at St. Olav University Hospital in Trondheim, and Center for Psychopharmacology at Diakonhjemmet Hospital in Oslo). […] The antidepressant TDM data contain serum concentration measurements taken in a naturalistic setting from psychiatry inpatients and outpatients. In addition to measured serum concentrations, the databases contain information obtained from the requisition forms, such as the prescribed antidepressant dose, time of last drug intake, time of blood sampling, and types and doses of concomitant drugs.
First, a combined laboratory TDM file was created, containing all serum concentration measurements (for any drug) in the period October 1999 –December 2011 for all women of reproductive age (i.e. born 1950–2000). […] Using the unique 11-digit identification number assigned to all individuals living in Norway, the MBRN could identify all pregnant women in the TDM data set. […] For the current study we retrieved the following information: the personal identification number, the drug analysed, the measured drug serum concentration, time of last dose, time of sampling, drug dose, concomitant drug use, other clinical information, name of the responsible physician, gestational week at the time of sampling (calculated from the sampling date and the pregnancy onset date as determined by obstetric ultrasound if available, or by last menstruation), and date of delivery.
If the requisition form lacked information on drug dose the authors contacted the responsible physician, who attempted to obtain this information from the medical record. If we were unable to retrieve this information, the analysis was excluded.
Having identified the pregnant women and their individual pregnancy periods in the extracted data file, we used the original TDM databases to retrieve serum concentration measurements before and after pregnancy from the same women, to serve as baseline observations for each of the included subjects. […] These analyses were not used in the statistical model, only for visual comparison. The remaining 420 analyses were used for the statistical comparisons.
Since multiple measurements were available from the same patient a linear mixed model was used. […] Baseline measurements were set to gestational week 0 in the model. Then, the effect of gestational week on concentration compared to baseline could be estimated for each drug.
Data are presented as means with 95% confidence intervals.

[2] = cited from earlier work
[3] = Serum metabolite concentrations and parent compound/metabolite ratios at baseline and in the third trimester (TDM, linear mixed model); conditions: for Change from baseline conc., Estimate (parent compound or metabolite) / Parent compound / metabolite ratio (PMR), change from baseline, estimate: baseline to third trimester (gestational week 34); for Baseline conc., Estimate (parent compound or metabolite) / Parent compound / metabolite ratio (PMR), baseline estimate: day 0 (non-pregnant); for Baseline conc., Estimate (parent compound or metabolite) / Loge serum concentration, Intercept estimate (parent compound or metabolite): only analyses with metabolite data; for Baseline conc., Estimate (parent compound or metabolite): dose-adjusted to DDD; for Parent compound / metabolite ratio (PMR), third trimester estimate: gestational week 34; for Loge PMR, Intercept estimate / Loge PMR, Change per gestational week estimate: loge-transformed parent compound/metabolite ratio; for Loge PMR, Intercept estimate: baseline; for Loge PMR, Change per gestational week estimate / Loge serum concentration, Change per gestational week estimate (parent compound or metabolite): per week of pregnancy; for Loge serum concentration, Intercept estimate (parent compound or metabolite) / Loge serum concentration, Change per gestational week estimate (parent compound or metabolite): loge-transformed; for Loge serum concentration, Intercept estimate (parent compound or metabolite): baseline (day 0 of pregnancy); for Change of parent compound or metabolite serum concentration in pregnancy (in words): analyses with metabolite data (Table 3); for Parent compound / metabolite ratio in mid third trimester lower than baseline: value printed as size of the decline
Procedure: (§1) Quantification of the drug concentrations was performed with liquid chromatography-mass spectrometry/tandem mass spectrometry (LC-MS/LC-MS/MS). […] In brief, the drugs were extracted from serum by liquid-liquid extraction, using a mixture of hexane, acetonitrile and/or butanol, or dichloromethane and isopropanol. Thereafter, the analytes were separated on C18 columns using methanol, acetonitrile, formic acid or ammonium acetate as mobile phases, and quantified on LC-MS or LC-MS-MS systems. Calibration curves were constructed for each assay with drug-free human serum by the addition of varying concentrations of the antidepressants and their respective metabolites.
(§2) Serum concentrations in ng/mL were divided by the daily dose used by the person at the time of sampling, providing a serum concentration/dose ratio, and then multiplied by the defined daily dose (DDD), which is the assumed average maintenance dose per day for that drug used for its main indication in adults [28]. […] All concentrations presented and discussed in this article, including tables and figures, are dose-adjusted to the DDD of the drug.
(§3) For drugs where both the parent drug and the metabolite were measured, parent drug/metabolite concentration ratios during pregnancy were compared to baseline values as described above; ratios were loge-transformed and fitted into a linear mixed model, estimating the baseline ratios and the effect of each gestational week.
(§4) All model parameters, including variance components, were estimated by the method of maximum likelihood using STATA 13 command “mixed”. […] P values less than 0.05 were considered statistically significant.

[4] = in vivo
Procedure: as §1, §2, §3, §4

[5] = Previous studies of antidepressant plasma/serum concentrations in pregnancy (literature quoted in the Discussion); assay type: in vivo, human; conditions: 0.3 ng/mL per gestational week applied to this study's data

SMILES | Change from baseline conc., Estimate (parent compound or metabolite) [3] | Parent compound / metabolite ratio (PMR), change from baseline, estimate [3] | Baseline conc., Estimate (parent compound or metabolite) [3] [ng/mL] | Parent compound / metabolite ratio (PMR), baseline estimate [3] | Parent compound / metabolite ratio (PMR), third trimester estimate [3] | Loge PMR, Intercept estimate [3] | Loge PMR, Change per gestational week estimate [3] | Loge serum concentration, Intercept estimate (parent compound or metabolite) [3] | Loge serum concentration, Change per gestational week estimate (parent compound or metabolite) [3] | Change of parent compound or metabolite serum concentration in pregnancy (in words) [3] | Change of serum concentration in pregnancy compared to baseline (in words) ([1]; dose-adjusted) | further results
CN(C)CCCC1(c2ccc(F)cc2)OCc2cc(C#N)ccc21 (stereo not drawn) [Citalopram] | -39% | -13% | 32.3 | 2.6 | 2.3 | 0.973 | -0.004 | 3.475 | -0.015 | – | remain largely unchanged | Serum concentration in third trimester lower than baseline (reduction) [1]: 24%; Third trimester concentrations lower than baseline values ([2]; 11 pregnancies, ref Heikkinen et al. [13]): 42%; Third trimester concentrations lower than baseline ([2]; two pregnancies, ref Sit et al. [19]): 26%; Change of parent compound / metabolite ratio in pregnancy (in words) ([3]; third trimester vs baseline): did not reach statistical significance
CNCCCC1(c2ccc(F)cc2)OCc2cc(C#N)ccc21 (stereo not drawn) [Desmethylcitalopram] | -33% | – | 12.6 | – | – | – | – | 2.534 | -0.012 | – | – | –
CNCCCC1(c2ccc(F)cc2)OCc2cc(C#N)ccc21 (stereo not drawn) [Desmethylescitalopram] | – | – | – | – | – | – | – | – | – | – | – | Loge serum concentration, Change per gestational week estimate (parent compound or metabolite) [4]: -0.004
N[C@H]1CC[C@@H](c2ccc(Cl)c(Cl)c2)c2ccccc21 [Desmethylsertraline] | +120% | – | 18.4 | – | – | – | – | 2.914 | 0.023 | increasing levels | – | –
CN(C)CCC[C@@]1(c2ccc(F)cc2)OCc2cc(C#N)ccc21 [Escitalopram] | +24% | +40% | 8.4 | 1.8 | 2.5 | 0.581 | 0.010 | 2.129 | 0.006 | – | did not change significantly; also recorded: not statistically significant; also recorded: remain largely unchanged; also recorded: close to zero | concentration at 4 gestational week ([1]; female, human, serum, 10 mg/day, one analysis in week 4, dose-adjusted, read-out: Observed serum concentration, outlier not shown in Fig 2): 36 ng/mL; concentration at 5 gestational week ([1]; female, human, serum, 10 mg/day, one analysis in week 5, dose-adjusted, read-out: Observed serum concentration, outlier not shown in Fig 2): 40 ng/mL; Observed serum concentration, outlier not shown in Fig 2 ([1]; one analysis in week 0 (baseline), dose-adjusted): 36 ng/mL; Change of concentrations throughout pregnancy (in words) ([2]; five pregnancies, ref Sit et al. [19]): only minor declines or no change; Parent compound / metabolite ratio (PMR), change from baseline, estimate ([3]; listed as escitalopram): 40%
COCCCC/C(=N\OCCN)c1ccc(C(F)(F)F)cc1 [Fluvoxamine] | – | – | – | – | – | – | – | – | – | – | – | Serum concentration in pregnancy as share of pre-pregnancy levels [1]: about 50%; Serum concentration in third trimester lower than baseline (reduction) [1]: 56%
Fc1ccc([C@@H]2CCNC[C@H]2COc2ccc3c(c2)OCO3)cc1 [Paroxetine] | – | – | – | – | – | – | – | – | – | – | – | Serum concentration in pregnancy as share of pre-pregnancy levels [1]: about 50%; Serum concentration in third trimester lower than baseline (reduction) [1]: 51%; Concentrations in third trimester compared to postpartum (in words) ([2]; 12 pregnancies, no numbers provided, ref Brogtrop et al. [17]): lower concentrations in the third trimester compared to postpartum; Increase of maternal plasma concentration per gestational week ([2]; intermediate and poor CYP2D6 metabolizers): 0.6 ng/mL per gestational week; Decline of maternal plasma concentration per gestational week ([2]; ultrarapid or extensive CYP2D6 metabolizers, 74 pregnancies, ref Ververs et al. [20]): 0.3 ng/mL per gestational week; Reduction in week 34 to which the cited decline per week translates for the present data [5]: 30%
CNCC[C@H](Oc1ccc(C(F)(F)F)cc1)c1ccccc1 [S-fluoxetine] | – | – | – | – | – | – | – | – | – | – | – | Enantiomer concentration change in pregnancy, chiral analysis (in words) ([2]; in vivo): declined more than R-fluoxetine
COc1ccc(C(CN(C)C)C2(O)CCCCC2)cc1 (stereo not drawn) [Venlafaxine] | -40% | – | 35.8 | – | – | -0.927 | -0.011 | 3.577 | -0.015 | trend towards a statistically significant decline | remain largely unchanged | Change of serum concentration in pregnancy compared to baseline (in words) ([1]; dose-adjusted, listed as venlafaxine): did not change significantly; also recorded: not statistically significant; Reduction in plasma levels in pregnancy compared to baseline ([2]; case report, ref Klier et al. [16]): more than 50%; Reduction in levels in pregnancy ([2]; prospective study of seven pregnancies, ref ter Horst et al. [24]): 13%

The next lines start with results.

Change from baseline conc., Estimate (parent compound or metabolite) [3] | Parent compound / metabolite ratio (PMR), change from baseline, estimate [3] | Baseline conc., Estimate (parent compound or metabolite) [3] [ng/mL] | Parent compound / metabolite ratio (PMR), baseline estimate [3] | Parent compound / metabolite ratio (PMR), third trimester estimate [3] | Loge PMR, Intercept estimate [3] | Loge PMR, Change per gestational week estimate [3] | Loge serum concentration, Intercept estimate (parent compound or metabolite) [3] | Loge serum concentration, Change per gestational week estimate (parent compound or metabolite) [3] | Change of parent compound or metabolite serum concentration in pregnancy (in words) [3] | SMILES | Change of serum concentration in pregnancy compared to baseline (in words) ([1]; dose-adjusted) | further results
-31% | -36% | 77.7 | 1.0 | 0.6 | -0.045 | -0.013 | 4.353 | -0.011 | decline | CNCCC(Oc1ccc(C(F)(F)F)cc1)c1ccccc1 (stereo not drawn) [Fluoxetine] | did not change significantly; also recorded: not statistically significant; also recorded: remain largely unchanged; also recorded: no major decline | Third trimester concentrations of the active moiety lower than baseline ([2]; fluoxetine plus norfluoxetine, 11 pregnancies, ref Heikkinen et al.): 32%; Parent compound / metabolite ratio in mid third trimester lower than baseline [3]: 36%
0% | – | 83.7 | – | – | – | – | 4.427 | 0.000 | remain largely unchanged | NCCC(Oc1ccc(C(F)(F)F)cc1)c1ccccc1 (stereo not drawn) [Norfluoxetine] | – | –
-13% | – | 91.5 | – | – | – | – | 4.516 | -0.004 | did not change | CN(C)CC(c1ccc(O)cc1)C1(O)CCCCC1 (stereo not drawn) [O-desmethylvenlafaxine] | – | Change of metabolite levels in pregnancy (in words) ([2]; prospective study of seven pregnancies): no change
+83% | -20% | 8.6 | 0.5 | 0.4 | -0.764 | -0.006 | 2.147 | 0.018 | increasing levels | CN[C@H]1CC[C@@H](c2ccc(Cl)c(Cl)c2)c2ccccc21 [Sertraline] | statistically significant increase | Change of concentrations in pregnancy in previous studies (in words) ([2]; eight and six pregnancies): variable/non-significant observations; Parent compound / metabolite ratio in mid third trimester lower than baseline [3]: 20%
